“Also recorded” adds a separate entry of the source.
Experiments:
[1] = tested on: HLA-A, HLA-B, HLA-C, PSMB8, PSMB9, PSMB10 mRNA; assay: mRNA levels of MHC-I and immunoproteasome genes (RT-PCR, RNA-seq); type: cell-based, human; conditions: MB135iDUX4 cells
Protocol: Myoblasts were transfected with either (final concentrations) 10 μM 2′,3′-cGAMP (Sigma Aldrich), 2 μg/mL poly(I:C) (Invitrogen), or 1 μg/mL 3′ppp-dsRNA RIG-I ligand (Dan Stetson Lab, UW) using Lipofectamine 2000 according to manufacturer's protocol, or were stimulated with 1000U IFNβ (PeproTech) or 200 ng/ml IFNγ (R+D Systems) by addition directly to cell culture medium. After 16 hours of immune stimulation, RNA was collected from cells using the NucleoSpin RNA Kit (Macherey-Nagel) according to manufacturer's instructions. RNA samples were quantified by nanodrop and 1 μg of RNA per sample was treated with DNase I Amplification Grade (Thermo Fisher), and then synthesized into cDNA using the Superscript IV First-Strand Synthesis System, including oligo dT primers (Invitrogen). qPCR was run in 384-well plates on an Applied Biosystems QuantStudio 6 Flex Real-Time PCR System (ABI) and analyzed in Microsoft Excel.
Total RNA was isolated using the NucleoSpin RNA kit (Machery-Nagel) or Direct-zol RNA Mini-Prep Kit (Zymo Research) according to manufacturer's instructions. RNA-seq libraries were prepared using the Illumina TruSeq RNA Sample Prep v2 Kit and sequenced using 50 bp paired-end sequencing on the Illumina NextSeq platform by the Fred Hutchinson Cancer Center Genomics Core.

[2] = tested on: de novo protein synthesis; assay: [35S]-methionine/cysteine metabolic labeling of nascent protein synthesis; type: cell-based; conditions: human myoblasts, 20-92 h after 4 h doxycycline pulse
Protocol: Cells were treated with and without a 4-hour pulse of doxycycline. Eight hours prior to harvest, cells were incubated in DMEM depleted for methionine and cysteine (Gibco) supplemented with 90 microcurie 35S-methionine/cysteine (Perkin Elmer) and 50 ng/ml […] (R&D Systems). Protein samples were harvested in RIPA buffer [150 mM NaCl, 1% NP-40, 0.5% Na-deocycholate, 1% SDS, 25 mM Tris-HCl pH7.4] supplemented with protease and phosphatase inhibitor tablets (Pierce), followed by sonication in Diagenode Bioruptor. Lysate was cleared by centrifugation at 16000×g and quantified using a Pierce BCA assay (Thermo Scientific). Samples were run on NuPAGE precast polyacrylamide gels (Invitrogen). Gels were stained with InstantBlue Coomassie (Abcam) following manufacturer protocol, placed on whatman paper, wrapped in plastic wrap, and dried. Gels were exposed to phosphor screen, imaged on Typhoon Trio imager, and analyzed with ImageQuant.

[3] = tested on: STAT1; assay: Anti-FLAG co-immunoprecipitation and western blot for STAT1; type: binding, human; conditions: anti-FLAG IP from MB135 cells ± IFNG
Protocol: Centrifugation at 2500 rcf at 4° C. for 5 min pelleted the nuclei, supernatant was discarded, and nuclei resuspended in 1 mL IP buffer pH 7.4 (25 mM Tris-HCl pH 7.5, 175 mM NaCl, 1 mM EDTA, 0.2% NP-40, 5% glycerol) and incubated for 1 hour at 4° C. with rotation then spun at 21000 rcf for 10 minutes at 4° C. to pellet insoluble debris. Protein concentration was determined using the Pierce BCA Protein Assay Kit (ThermoFisher, 23225). An equivalent amount of protein per sample was pre-cleared with Dynabeads Protein G (Invitrogen) bound to mouse IgG (Abcam #131368) for 1 hour at 4° C. with rotation. FLAG-tagged constructs were then immunoprecipitated with Dynabeads Protein G beads coupled to mouse anti-FLAG M2 mAb (Sigma F3165) for 3 hours at 4° C. with rotation. Beads were washed 3× with 1 mL IP buffer and eluted by adding 2× NuPage LDS Sample Buffer (Thermo Fisher, diluted from 4× with PBS) to the beads and heating for 10 minutes at 70° C.
Antibodies against STAT1 [EPR4407] (ab109320), pSTAT1 Y701 [M135] (ab29045), pSTAT1 S727 [EPR3146] (ab109461), YBX1 [EP2708Y] (ab76149), PABPC1 (ab21060), hnRNPM [EPR13509 (B)] (ab177957), PRKDC [Y393] (ab32566), and HSP90AB1 [EPR16621] (ab203085) were purchased from Abcam. Antibodies against FLAG tag [M2] (F1804) and [M2] (F3146) were purchased from Sigma Aldrich. Antibodies against DDX3X [D19B4] (8192S), hnRNPK [R332] (4675S), TRIM28 [C42G12] (4124S), PPP2R1A [81G5] (2041S), NCL [D4C70] (14574S), and MYC tag [71D10] (2278S), and IDO1 [D5J4E] (86630S) were purchased from Cell Signaling Technology. Antibodies against hnRNPU (14599-1-AP), CDK4 (11026-1-AP), and HAT1 (11432-1-AP) were purchased from ProteinTech. The antibody against HSPA8 [SR39-04] (PIMA532002) was purchased from ThermoFisher. The antibody against DUX4 (P2G4) was described previously (Geng et al., 2011, Immunodetection of human double homeobox 4. Hybridoma (Larchmt) 30, 125-130). The antibodies Goat anti-Rabbit IgG HRP (ThermoFisher, A27036) and Rat anti-Mouse IgG HRP for IP (Abcam, ab131368) were used as secondary antibodies against rabbit and mouse primary antibodies for western blotting.

## DUX4: human DUX4 protein SEQ ID NO:3 expressed from doxycycline inducible codon altered transgene SEQ ID NO:2
[1]
  effect on IFNG-induced mRNAs of MHC class I / immunoproteasome genes, continuous protocol: profound inhibition of the IFNG-induction of the mRNA for MHC class I genes; also recorded: partially suppresses the IFNG induction of the mRNAs for PSMB8, 9, and 10; also recorded: partly blocked IFNG stimulation of HLA-A, HLA-B, HLA-C, PSMB8, PMSB9, and PSMB10 mRNA levels
  effect on IFNG-induced mRNAs of MHC class I / immunoproteasome genes, pulsed protocol: little suppression of their mRNAs; also recorded: nearly full induction of these mRNAs; also recorded: still exhibited IFNG-induced mRNA levels significantly above untreated samples
[2]
  nascent protein synthesis by 35S labeling: global de novo protein synthesis was transiently reduced
[2]; listed as wildtype DUX4
  nascent protein synthesis by 35S labeling: a reduction in labeled nascent proteins several days following a pulse

## longCTD: 3×FLAG tag and nls in frame with carboxyterminal 271 amino acids of DUX4 (aa154-424), SEQ ID NOS: 8-9
[3]; listed as DUX4-CTD
  co-immunoprecipitation with STAT1 / phosphorylated STAT1: phosphorylation at Y701 is necessary for enhanced interaction; also recorded: preferentially interacts with pSTAT1-Y701
[3]; listed as DUX4 CTD
  co-immunoprecipitation with STAT1 / phosphorylated STAT1: showed stronger interaction with phosphorylated STAT1
[3]; listed as DUX4 longCTD
  co-immunoprecipitation with STAT1 / phosphorylated STAT1: both show binding to STAT1; also recorded: STAT1 is associated

Reference: US20250339531A1, “DUX4 POLYPEPTIDES AND NUCLEIC ACIDS FOR TREATING INFLAMMATORY AND AUTOIMMUNE CONDITIONS” (Fred Hutchinson Cancer Center, priority 2021, published 2025)
